Source: US20230382919A1, “OXA- IBOGAINE INSPIRED ANALOGUES FOR TREATMENT OF NEUROLOGICAL AND PSYCHIATRIC DISORDERS” (The Trustees of Columbia University in the City of New York, priority 2021, published 2023)
Where two headings read alike, the source gives them in different places.

Key:
KOR = KOR (Rattus norvegicus (Rat), UniProt P34975); test: KOR agonist (cAMP) assay, CHO cells (commercial); assay type: cell-based; conditions: for Emax at 10 µM: read-out: % of control agonist maximal response (KOR)
Excerpt: (§1) Potency (IC50 and EC50) and efficacy values for hERG, rKOR-CHO, hMOR-CHO, h5-HT2A-HEK, h5-HT2B-CHO, h5-HT2C HEK were obtained by screening the selected compounds via commercially available assay services.

5-HT2C = 5-HT2C (Homo sapiens (Human), UniProt P28335); test: 5-HT2C agonist (IP1) assay, HEK-293 cells (commercial); assay type: cell-based; conditions: for Emax at 10 µM: HEK293, read-out: % of control agonist maximal response (5-HT2C); for EC50: IP1 agonist assay
5-HT2C, sequence (P28335 whole entry, looked up): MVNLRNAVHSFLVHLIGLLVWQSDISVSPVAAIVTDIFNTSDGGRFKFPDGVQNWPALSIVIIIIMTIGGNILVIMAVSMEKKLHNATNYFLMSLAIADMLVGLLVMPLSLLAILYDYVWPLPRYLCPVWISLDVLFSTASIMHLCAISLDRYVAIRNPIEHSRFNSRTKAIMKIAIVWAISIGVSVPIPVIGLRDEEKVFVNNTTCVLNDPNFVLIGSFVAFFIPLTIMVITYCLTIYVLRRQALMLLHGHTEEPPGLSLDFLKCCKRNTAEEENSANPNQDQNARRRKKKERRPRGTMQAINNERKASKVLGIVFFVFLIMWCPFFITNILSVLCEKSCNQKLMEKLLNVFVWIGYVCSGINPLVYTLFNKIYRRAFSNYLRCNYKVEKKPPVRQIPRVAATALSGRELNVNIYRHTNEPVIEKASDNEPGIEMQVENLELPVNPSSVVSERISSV
Excerpt: as §1

5-HT2A = 5-HT2A (Homo sapiens (Human), UniProt P28223); test: 5-HT2A agonist (IP1) assay, HEK-293 cells (commercial); assay type: cell-based; conditions: for Emax at 10 µM: HEK293, read-out: % of control agonist maximal response (5-HT2A); for EC50: IP1 agonist assay
Excerpt: as §1

rVMAT2 = rVMAT2 (Rattus norvegicus (Rat), UniProt Q01827); test: rVMAT2 fluorometric screening assay (FFN206 uptake, rVMAT2-HEK cells); assay type: cell-based; conditions: average ± SEM, n ≥ 4; read-out: IC50 VMAT2 [μM ± SEM]
rVMAT2, sequence (Q01827 whole entry): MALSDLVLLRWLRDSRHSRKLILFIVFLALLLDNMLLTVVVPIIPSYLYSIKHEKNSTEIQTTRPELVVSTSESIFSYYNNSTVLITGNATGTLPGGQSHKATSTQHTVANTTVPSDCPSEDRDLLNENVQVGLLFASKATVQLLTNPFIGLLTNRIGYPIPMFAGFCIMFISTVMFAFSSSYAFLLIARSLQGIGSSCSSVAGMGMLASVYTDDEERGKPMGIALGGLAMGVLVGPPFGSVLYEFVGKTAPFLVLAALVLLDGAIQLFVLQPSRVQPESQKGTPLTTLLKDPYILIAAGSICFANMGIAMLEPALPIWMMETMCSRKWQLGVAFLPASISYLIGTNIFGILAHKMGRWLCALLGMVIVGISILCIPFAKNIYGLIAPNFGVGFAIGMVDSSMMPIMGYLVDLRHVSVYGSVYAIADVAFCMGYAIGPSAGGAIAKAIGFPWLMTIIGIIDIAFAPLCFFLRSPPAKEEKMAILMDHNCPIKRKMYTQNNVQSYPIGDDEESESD
Procedure: (§2) Inhibition assays of transporters (hSERT and rVMAT2) were performed according to the following protocol.
(§3) Stably transfected hSERT-HEK and rVMAT2-HEK cellular cultures were maintained in Dulbecco's Minimal Essential Medium (DMEM) with GlutaMAX (Gibco) with the following additions: 10% (v/v) Fetal Bovine Serum (FBS, Atlanta Biologicals), 100 U/mL Penicillin (Gibco), and 10 μg/mL Streptomycin (Gibco). With regards to the former cell lineage, an additional ingredient, 500 μg/mL Geneticin (G418) (Gibco) was included to preserve the respective transgene.
(§4) For both hSERT and rVMAT2 screening experiments, respective singly transfected cells were seeded at a density of 0.09×10^6 cells/well in poly-D-Lysine (Alamanda Polymers, Inc.) coated white solid-bottom 96-well plates (Costar). Growth was permitted for approximately 44 hours in said aqueous media and at an incubation environment of 37° C. and 5% Carbon Dioxide. At the beginning of the experiment, the cellular growth solution was aspirated, and individual cells were rinsed with 150 μL of 1×Dulbecco's Phosphate Buffered Saline (PBS; HyClone). 63 μL of Experimental Media (consisting of the following contents: DMEM without phenol red but with 4.5 g/L of D-Glucose (Gibco), 1% (v/v) FBS (Atlanta Biologicals), 100 U/mL Penicillin (Gibco), and 10 μg/mL Streptomycin (Gibco)) with 2×tiered concentrations of inhibitor (or DMSO, the vehicle of these experiments) were added to the respective wells. Control inhibitors used in these studies include Imipramine for hSERT experiments, and Reserpine for rVMAT2 experiments (Eiden, L. E. and Weihe, E. 2011; Sette, M. et al. 1983). At the conclusion of the pre-incubation period (60 minutes for hSERT experiments and 30 minutes for rVMAT2 experiments), 63 μL of Experimental Media containing 2×various concentrations of tested inhibitor (or vehicle) along with a specified amount of fluorescent substrate, APP^+ (Karpowicz, R. J. et al 2013) (final concentration: 1.1 μM for hSERT experiments) or FFN206 (Hu, G. et al. 2013) (final concentration: 0.75 μM for rVMAT2 experiments) were added to the present solution contained within the wells. […] A final solution of 120 μL of PBS is finally added to all corresponding wells for cell maintenance before undergoing fluorescence uptake reading by a BioTek H1MF plate reader. […]
(§5) Numerical analysis of the collected experimental data preceded as accordingly. Respective inhibitor values were first subtracted from vehicular values to quantify the respective fluorescence uptake. This metric was then analyzed using the dose-response-inhibitor nonlinear curve fitting model ([inhibitor] vs response (three parameters)) as supplied by GraphPad Prism 8 software. […]

hSERT = hSERT (Homo sapiens (Human), UniProt P31645); test: hSERT fluorometric screening assay (APP+ uptake, hSERT-HEK cells); assay type: cell-based; conditions: average ± SEM, n ≥ 4; read-out: IC50 SERT [μM ± SEM]
Procedure: as §2, §3, §4, §5

hERG = hERG (Homo sapiens (Human), UniProt Q12809); test: hERG radioligand ([3H]Dofetilide) displacement binding assay (commercial); conditions: for IC50: [3H]Dofetilide displacement
hERG, sequence (Q12809 whole entry): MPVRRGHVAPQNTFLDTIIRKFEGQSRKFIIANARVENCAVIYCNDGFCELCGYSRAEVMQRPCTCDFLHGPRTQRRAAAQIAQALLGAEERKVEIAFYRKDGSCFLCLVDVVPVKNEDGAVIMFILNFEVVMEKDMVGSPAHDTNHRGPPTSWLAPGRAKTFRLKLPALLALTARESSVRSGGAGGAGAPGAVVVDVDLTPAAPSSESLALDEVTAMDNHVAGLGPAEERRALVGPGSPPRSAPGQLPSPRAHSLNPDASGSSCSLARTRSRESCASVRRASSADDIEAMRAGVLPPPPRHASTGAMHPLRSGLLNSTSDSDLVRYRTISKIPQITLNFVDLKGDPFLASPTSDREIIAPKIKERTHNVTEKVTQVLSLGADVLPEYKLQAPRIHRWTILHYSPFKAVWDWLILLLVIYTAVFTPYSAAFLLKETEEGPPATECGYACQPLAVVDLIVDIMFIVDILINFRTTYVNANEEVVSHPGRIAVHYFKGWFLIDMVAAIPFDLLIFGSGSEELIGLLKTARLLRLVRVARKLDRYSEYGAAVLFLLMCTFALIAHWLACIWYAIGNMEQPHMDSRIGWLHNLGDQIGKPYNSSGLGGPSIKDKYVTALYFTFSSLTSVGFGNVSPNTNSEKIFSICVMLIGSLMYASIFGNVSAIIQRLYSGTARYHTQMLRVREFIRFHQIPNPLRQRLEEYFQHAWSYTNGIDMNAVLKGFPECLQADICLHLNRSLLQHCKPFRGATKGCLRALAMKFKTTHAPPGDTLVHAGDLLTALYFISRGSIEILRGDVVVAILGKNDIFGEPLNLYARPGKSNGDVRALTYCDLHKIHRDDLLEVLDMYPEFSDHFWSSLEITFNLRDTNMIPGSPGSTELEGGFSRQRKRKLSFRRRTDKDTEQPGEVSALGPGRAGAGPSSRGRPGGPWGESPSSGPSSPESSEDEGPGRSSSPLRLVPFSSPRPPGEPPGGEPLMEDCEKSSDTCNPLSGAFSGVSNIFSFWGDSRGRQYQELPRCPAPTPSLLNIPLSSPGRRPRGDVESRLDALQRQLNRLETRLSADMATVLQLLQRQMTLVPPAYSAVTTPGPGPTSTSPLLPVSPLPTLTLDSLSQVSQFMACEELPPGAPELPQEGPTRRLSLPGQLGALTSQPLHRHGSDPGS
Excerpt: as §1

5-HT2B = 5-HT2B (Homo sapiens (Human), UniProt P41595); test: 5-HT2B agonist (IP1) assay, CHO cells (commercial); assay type: cell-based; conditions: for Emax at 10 µM: CHO, read-out: % of control agonist maximal response (5-HT2B); for EC50: IP1 agonist assay
5-HT2B, sequence (P41595 whole entry): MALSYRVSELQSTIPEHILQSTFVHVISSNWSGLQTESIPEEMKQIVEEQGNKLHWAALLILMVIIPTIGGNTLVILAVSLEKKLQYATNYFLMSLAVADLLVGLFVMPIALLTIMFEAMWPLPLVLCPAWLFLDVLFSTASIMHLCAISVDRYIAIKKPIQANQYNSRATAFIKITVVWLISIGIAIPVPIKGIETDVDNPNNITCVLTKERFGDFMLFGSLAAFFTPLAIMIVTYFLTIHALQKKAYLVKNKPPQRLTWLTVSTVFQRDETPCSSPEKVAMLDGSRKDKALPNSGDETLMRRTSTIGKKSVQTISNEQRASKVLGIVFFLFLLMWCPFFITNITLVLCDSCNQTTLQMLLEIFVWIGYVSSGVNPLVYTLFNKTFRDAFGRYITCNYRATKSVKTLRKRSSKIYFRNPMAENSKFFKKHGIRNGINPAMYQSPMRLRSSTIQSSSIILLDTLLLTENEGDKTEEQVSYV
Excerpt: as §1

mouse MOR (mMOR) = mouse MOR (mMOR) (Mus musculus (Mouse), UniProt P42866); test: G-protein BRET functional opioid assay, MOR; assay type: cell-based
mouse MOR (mMOR), sequence (P42866 whole entry, looked up, the tested form may be a part): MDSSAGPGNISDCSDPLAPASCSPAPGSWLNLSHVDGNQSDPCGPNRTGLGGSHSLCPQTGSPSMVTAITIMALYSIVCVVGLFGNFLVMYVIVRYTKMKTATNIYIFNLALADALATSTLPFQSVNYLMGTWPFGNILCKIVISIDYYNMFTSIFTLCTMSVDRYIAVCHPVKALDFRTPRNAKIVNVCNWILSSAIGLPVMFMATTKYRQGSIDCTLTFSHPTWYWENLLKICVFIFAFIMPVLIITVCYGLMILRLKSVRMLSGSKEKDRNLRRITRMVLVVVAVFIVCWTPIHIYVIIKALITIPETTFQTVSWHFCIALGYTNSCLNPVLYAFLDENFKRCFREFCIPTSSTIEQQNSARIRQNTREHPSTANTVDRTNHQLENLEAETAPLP
Procedure: (§6) HEK-293T cells were obtained from the American Type Culture Collection (Rockville, MD) and were cultured in a 5% CO2 atmosphere at 37° C. in Dulbecco's Modified Eagle Medium (high glucose #11965; Life Technologies Corp.; Grand Island, NY) supplemented with 10% FBS (Premium Select, Atlanta Biologicals; Atlanta, GA), 100 U/mL penicillin, and 100 μg/mL streptomycin (#15140, Life Technologies). DNA Constructs: The mouse MOR (mMOR), the mouse DOR (mDOR) and the rat KOR (rKOR) were provided by Dr Lakshmi Devi at Mount Sinai School of Medicine. The G proteins used included untagged GαoB with Renilla luciferase 8 (RLuc8) inserted at position 91 (GαoB-RLuc8); Gβ1 (β1); Gγ2 which was fused to the full-length mVenus at its N-terminus via the amino acid linker GSAGT (mVenus-γ2). All constructs were sequence confirmed prior to use in experiments.
(§7) Transfection: The following cDNA amounts were transfected into HEK-293T cells (5×10^6 cells/plate) in 10-cm dishes using polyethylenimine (PEI) in a 1:1 ratio (diluted in Opti-MEM, Life Technologies): 2.5 μg MOR/DOR/KOR, 0.125 μg GαoBRLuc8, 6.25 μg (1, 6.25 μg mVenus-γ2. Cells were maintained in the HEK-293T media described above. After 24 hours the media was changed, and the experiment was performed 24 hours later (48 hours after transfection). BRET: Transfected cells were dissociated and re-suspended in phosphate-buffered saline (PBS). Approximately 200,000 cells/well were added to a black-framed, white-well, 96-well plate (#60050; Perkin Elmer; Waltham, MA). The microplate was centrifuged and the cells were resuspended in PBS. After 5 minutes, 5 μM of the luciferase substrate coelenterazine H was added to each well. After 5 minutes, ligands were added and the BRET signal was measured 5 minutes later on a PHERAstar FS plate reader. The BRET signal was quantified by calculating the ratio of the light emitted by the energy acceptor, mVenus (510-540 nm), over the light emitted by the energy donor, RLuc8 (485 nm). This drug-induced BRET signal was normalized using the Emax of a known agonist (DAMGO, DPDPE or U-50,488) as the maximal response at MOR/DOR/KOR. Data were analyzed using the dose-response-stimulation nonlinear curve fitting model (log[agonist] vs. response (three parameters)).

mouse DOR (mDOR) = mouse DOR (mDOR) (Mus musculus (Mouse), UniProt P32300); test: G-protein BRET functional opioid assay, DOR; assay type: cell-based
Procedure: as §6, §7

rat KOR (rKOR) = rat KOR (rKOR) (Rattus norvegicus (Rat), UniProt P34975); test: G-protein BRET functional opioid assay, KOR; assay type: cell-based
Procedure: as §6, §7

`Oc1ccc2oc3c(c2c1)CCNCC3` [drawing 172] showed an Emax at 10 µM (KOR; CHO, Table 5, CAMP Assay) of under 0% and an EC50 (KOR; Table 5, CAMP Assay) of over 10 µM.
`CC1Cc2oc3ccc(O)cc3c2CCN1` (centres unmarked) [drawing 170] showed an Emax at 10 µM (5-HT2C; Table 4) of 86%, an EC50 (5-HT2C; Table 4) of 0.4 µM and an Emax at 10 µM (5-HT2A; Table 4) of 45%. It also gave an EC50 (5-HT2A; Table 4) of 1.9 µM.
Compound `c1ccc2c3c(oc2c1)CCCNC3` [drawing 167] has an IC50 (rVMAT2) of 0.061 ± 0.01 µM and an IC50 (hSERT) of 11 ± 2.9 µM.
Work on `Oc1ccc2oc3c(c2c1)CCN1CCCC3C1` (centres unmarked) [drawing 171] yielded an Emax at 10 µM (5-HT2C; Table 4) of under 0%, an EC50 (5-HT2C; Table 4) of over 10 µM and an IC50 (hERG; Table 4) of about 60 µM. It also gave an inhibition at 30 µM (hERG; human, HEK-293 cells expressing hERG, probe [3H]Dofetilide, Table 4, efficacy at 30 μM, read-out: % inhibition of control specific binding (hERG)) of 38%, an Emax at 10 µM (5-HT2B; Table 4) of 5% and an EC50 (5-HT2B; Table 4) of 0.4 µM. It also gave an Emax at 10 µM (5-HT2A; Table 4) of 1% and an EC50 (5-HT2A; Table 4) of over 10 µM.
`Oc1ccc2oc3c(c2c1)CCNCC3` [drawing 169] showed an Emax at 10 µM (5-HT2C; Table 4) of 93%, an EC50 (5-HT2C; Table 4) of 0.1 µM and an Emax at 10 µM (5-HT2B; Table 4) of 19%. For the same compound, the EC50 (5-HT2B; Table 4) was over 10 µM, the Emax at 10 µM (5-HT2A; Table 4) was 72% and the EC50 (5-HT2A; Table 4) was 0.6 µM.
`CC1Cc2oc3ccc(O)cc3c2CCN1C` (centres unmarked) showed an EC50 (mouse MOR (mMOR)) of 0.32 µM, an Emax (mouse MOR (mMOR); normalized to DAMGO, read-out: % of control agonist maximal response (MOR)) of 46% and an EC50 (mouse DOR (mDOR)) of 1.2 µM. It also gave an Emax (mouse DOR (mDOR); normalized to DPDPE, read-out: % of control agonist maximal response (DOR)) of 66%, an EC50 (rat KOR (rKOR)) of 0.079 µM and an Emax (rat KOR (rKOR); normalized to U-50,488, read-out: % of control agonist maximal response (KOR)) of 53%.
In the case of `CN1CCc2oc3ccccc3c2CC1` [drawing 162], the Emax at 10 µM (5-HT2C; Table 2) is reported as 99%, the EC50 (5-HT2C; Table 2) is reported as about 0.2 µM and the IC50 (hERG; Table 2, HEK-293) is reported as over 10 µM. For the same compound, the inhibition at 10 µM (hERG; human, HEK-293 cells expressing hERG, probe [3H]Dofetilide, Table 2, at 10 μM, read-out: % inhibition of control specific binding (hERG)) was 11%, the Emax at 10 µM (5-HT2B; Table 2) was 4% and the EC50 (5-HT2B; Table 2) was over 10 µM. The Emax at 10 µM (KOR; CHO, Table 2) was 36%, the EC50 (KOR; Table 2, cAMP agonist assay, rat KOR, CHO) was about 4.2 µM and the Emax at 10 µM (5-HT2A; Table 2) was 26%. It also gave an EC50 (5-HT2A; Table 2) of over 10 µM.
